Key:
[1] = target: T1, Proline utilization A (BjPutA) (Bradyrhizobium diazoefficiens, UniProt Q89E26, C792A); assay: X-ray crystal structure, […] Å, crystals soaked in […] L-proline; type: binding
T1 construct: gene putA; BjPutA C792A; 1949 of 2002 expected residues modeled in the asymmetric unit (dimer)
T1 sequence (Q89E26 1-999 C792A): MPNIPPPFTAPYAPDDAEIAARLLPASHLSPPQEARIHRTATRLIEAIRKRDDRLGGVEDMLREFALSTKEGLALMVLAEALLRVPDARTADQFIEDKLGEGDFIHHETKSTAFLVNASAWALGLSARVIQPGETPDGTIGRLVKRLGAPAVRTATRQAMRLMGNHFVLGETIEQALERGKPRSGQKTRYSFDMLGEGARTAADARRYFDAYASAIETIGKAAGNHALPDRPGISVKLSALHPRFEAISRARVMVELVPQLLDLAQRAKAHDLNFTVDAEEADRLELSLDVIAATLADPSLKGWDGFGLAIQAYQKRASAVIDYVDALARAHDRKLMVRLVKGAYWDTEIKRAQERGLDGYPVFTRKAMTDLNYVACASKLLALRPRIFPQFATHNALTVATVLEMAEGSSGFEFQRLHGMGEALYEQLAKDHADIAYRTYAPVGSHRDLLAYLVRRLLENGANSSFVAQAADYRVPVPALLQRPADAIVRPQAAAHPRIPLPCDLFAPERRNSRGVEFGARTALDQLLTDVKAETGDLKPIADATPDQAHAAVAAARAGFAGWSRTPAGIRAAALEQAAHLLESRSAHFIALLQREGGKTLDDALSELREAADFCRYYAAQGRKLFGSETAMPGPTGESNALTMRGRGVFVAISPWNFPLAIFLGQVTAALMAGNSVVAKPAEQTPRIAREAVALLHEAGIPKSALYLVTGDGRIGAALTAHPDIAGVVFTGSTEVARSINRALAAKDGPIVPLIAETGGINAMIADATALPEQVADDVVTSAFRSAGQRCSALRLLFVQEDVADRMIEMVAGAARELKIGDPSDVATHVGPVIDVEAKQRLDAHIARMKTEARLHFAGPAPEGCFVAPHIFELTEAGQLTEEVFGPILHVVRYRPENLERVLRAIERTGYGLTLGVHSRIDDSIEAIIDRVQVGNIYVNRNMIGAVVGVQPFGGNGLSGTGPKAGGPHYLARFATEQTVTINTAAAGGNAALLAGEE

[2] = target: T2, Proline utilization A (BjPutA) (Bradyrhizobium diazoefficiens, UniProt Q89E26, R456M); assay: steady-state GSALDH kinetics (NADH formation at […] nm), global fit to competitive inhibition; type: biochemical
T2 construct: gene putA; BjPutA R456M mutant (GSALDH activity measured)
T2 sequence (Q89E26 1-999 R456M): T1 sequence (Q89E26 1-999 C792A)

NC(CCC=O)C(=O)O = tested on: T3, NC(CCC=O)C(=O)O; assay: purified protein; type: biochemical, Bradyrhizobium diazoefficiens; conditions: NAD+ GSAL site of the GSALDH active site
T3 construct: BjPutA R456M mutant (GSALDH activity measured)

Compound	X-ray crystal structure, 2.15 Å, crystals soaked in 2 M L-proline [1]	Ki [2]	Km (NC(CCC=O)C(=O)O)
O=C(O)[C@@H]1CCCN1 [L-proline]	The carboxylate group interacts with Arg791, Ser793, and the backbone amine groups of Gly946 and Ala947.	46.3 mM	–
Proline utilization A (BjPutA) (Bradyrhizobium diazoefficiens USDA 110; R456M)	–	–	2400 µM

Source: paper PMC5786444, “Structural Basis for the Substrate Inhibition of Proline Utilization A by Proline” (Molecules : A Journal of Synthetic Chemistry and Natural …, 2017)
